IC50 and Activity data for 12 molecules are collected here from ChEMBL document CHEMBL5584347, “Development of Nitric Oxide Releasing Oxoisoaporphines with Antidepressant Activities by Simultaneously Regulating MAO-A and SERT” (J Med Chem, 2024).

Data set [1] in a line: Cytotoxicity against rat PC-12 cells incubated for 24 hrs by MTT assay. In kind it is toxicity, cell-based. (Tetrazolium dyes change colour on reduction, which living cells bring about.)
The test system of data set [2] is PC-12. Kind of data set: Neuroprotective activity against corticosterone-induced cell injury in rat PC-12 cells assessed as increase in cell viability at 0.1 to 1 uM incubated for 24 hrs by CCK8 assay. In kind it is functional, cell-based. The note with it: dose 0.1-1 µM.
The nature of data set [3]: Cytotoxicity against human L02 cells incubated for 24 hrs by MTT assay. It counts as toxicity, cell-based.
Data set [4] can be described thus: Cytotoxicity against human SH-SY5Y cells incubated for 24 hrs by MTT assay. It counts as toxicity, cell-based.
Data set [5] has as its system Mus musculus. Kind of data set: Upregulation of 5-HT level in mouse at 10 mg/kg in presence of oxoisoaporphines. It counts as functional, organism-based.
The subject of data set [6] is Mus musculus. The data set can be described thus: Upregulation of 5-HT level in mouse at 10 mg/kg in presence of isosorbide mononitrate. In kind it is functional, organism-based.
For data set [7], the system named is Mus musculus. Kind of data set: Antidepressant activity in reserpine induced depressive mouse model assessed as 5-HT level in brain at 10 mg/kg preadministered with reserpine for 3 days followed by compound addition from day 4 to 10 by LC-MS analysis (reference value: 186.46 ng/ml). The note with it: time 7 day. In kind it is functional.
Data set [8] has as its system Danio rerio. The data set can be described thus: Antidepressant activity in reserpine-induced depressive zebrafish model assessed as reduction in immobility time at 1 uM preadministered with reserpine for 40 mins followed by compound administration and measured after 7 days by open field test. It counts as functional, organism-based. The following applies: time 7.0 day.

In data set [9] the test system is Mus musculus. The data set can be described thus: Antidepressant activity in chronic unpredictable mild stress induced depressive C57 mouse model assessed as increase in total distance traveled at 10 mg/kg administered continuously for 2 weeks post 5 weeks of chronic unpredictable mild stress by open field test. It counts as functional, organism-based.
Data set [10] deals with Danio rerio. Kind of data set: Antidepressant activity in reserpine-induced depressive zebrafish model assessed as increase in total distance traveled at 1 uM preadministered with reserpine for 40 mins followed by compound administration and measured after 7 days by novel tank test. In kind it is functional, organism-based. The note with it: time 7.0 day.
Data set [11] deals with Danio rerio. Kind of data set: Antidepressant activity in reserpine-induced depressive zebrafish model assessed as increase in speed of movement at 1 uM preadministered with reserpine for 40 mins followed by compound administration and measured after 7 days by novel tank test. The following applies: time 7.0 day. In kind it is functional, organism-based.
In data set [12] the test system is Danio rerio. The data set can be described thus: Antidepressant activity in reserpine-induced depressive zebrafish model assessed as increase in total distance traveled at 1 uM preadministered with reserpine for 40 mins followed by compound administration and measured after 7 days by open field test. In kind it is functional, organism-based. The following applies: time 7.0 day.

The test system of data set [13] is Mus musculus. The data set can be described thus: Antidepressant activity in chronic unpredictable mild stress induced depressive C57 mouse model assessed as increase in movement at 10 mg/kg administered continuously for 2 weeks post 5 weeks of chronic unpredictable mild stress by open field test. It counts as functional, organism-based.
Data set [14] relates to Danio rerio. The data set can be described thus: Antidepressant activity in reserpine-induced depressive zebrafish model assessed as increase in speed of movement at 1 uM preadministered with reserpine for 40 mins followed by compound administration and measured after 7 days by open field test. In kind it is functional, organism-based. The following applies: time 7.0 day.

Data set [15] has as its system Danio rerio. Kind of data set: Antidepressant activity in reserpine-induced depressive zebrafish model assessed as increase in time spend in upper part at 1 uM preadministered with reserpine for 40 mins followed by compound administration and measured after 7 days by novel tank test. It counts as functional, organism-based. The following applies: time 7.0 day.

Active and inactive are the calls of the source. The calls are words filed in the database; no cut-off is given here.

As for `O=C1c2ccccc2-c2nccc3cc(OCCO[N+](=O)[O-])cc1c23`, the IC50 at 24 h in data set [1] was above 10 µM; in data set [3], above 100 µM; in data set [4] it was above 100 µM. Besides, in data set [2], the outcome was Active.
On to `O=C1c2ccccc2-c2nccc3cc(OCCCOc4no[n+]([O-])c4S(=O)(=O)c4ccccc4)cc1c23`, for which the IC50 at 24 h in data set [1] is above 10 µM; in data set [3], above 100 µM; in data set [4], above 100 µM. Also, the result in data set [2] was inactive.
Turning to `O=C1c2ccccc2-c2nccc3cc(OCCCCCCO[N+](=O)[O-])cc1c23`, the figures for the IC50 at 24 h in [1], in data set [3] and in data set [4] were above 10 µM, above 100 µM and above 100 µM, respectively. In addition, the result in [2] was Active.
With `O=C1c2ccccc2-c2nccc3cc(OCCOc4no[n+]([O-])c4S(=O)(=O)c4ccccc4)cc1c23`, the IC50 at 24 h in data set [1] was above 10 µM; in data set [3], above 100 µM; in [4], above 100 µM. In addition, the outcome in data set [2] was inactive.
On to `O=C1c2ccccc2-c2nccc3cc(OCCCCCCOc4no[n+]([O-])c4S(=O)(=O)c4ccccc4)cc1c23`, for which the IC50 at 24 h in [1] is above 10 µM; in data set [3], above 100 µM; in data set [4], above 100 µM. Besides, the result in data set [2] was inactive.
Consider `O=C1c2ccccc2-c2nccc3cc(OCCCCO[N+](=O)[O-])cc1c23`, for which the IC50 at 24 h in [1] is above 10 µM; in data set [3] it was above 100 µM; in data set [4] it was above 100 µM. Besides, in data set [2], the outcome was Active.
Consider `O=C1c2ccccc2-c2nccc3cc(OCCCCOc4no[n+]([O-])c4S(=O)(=O)c4ccccc4)cc1c23`, for which the IC50 at 24 h was above 10 µM in data set [1], above 100 µM in data set [3] and above 100 µM in data set [4]. For the same molecule, the result in data set [2] was inactive.
Turning to `O=[N+]([O-])O[C@@H]1CO[C@H]2[C@@H]1OC[C@@H]2O`, in [5], the outcome was Active.
With `O=C1c2ccccc2-c2nccc3cccc1c23`, the result in [6] was Active.
On to `CNCCC(Oc1ccc(C(F)(F)F)cc1)c1ccccc1` (configuration not stated) [FLUOXETINE], for which, in data set [7], the Activity was determined as 223.45 ng/mL. The result in [8], in data set [9], in [10], in [11], in [12] and in [13] was Active. Also, the outcome in data set [14] and in data set [15] was Active.
Take `O=C1c2ccccc2-c2nccc3cc(OCCCCCOc4no[n+]([O-])c4S(=O)(=O)c4ccccc4)cc1c23`: the IC50 at 24 h in [1] was above 10 µM; in [3] it was above 100 µM; in data set [4], above 100 µM. For the same molecule, the outcome in data set [2] was inactive.
`O=C1c2ccccc2-c2nccc3cc(OCCCCCO[N+](=O)[O-])cc1c23`: the concentration for half-maximal inhibition (IC50) at 24 h in data set [1] is above 10 µM; in [3], above 100 µM; in [4], above 100 µM. Also, the outcome in [2] was Active.

For orientation: IC50 means the point on the concentration scale where inhibition reaches its midpoint. A high value points to weaker potency.
